Results on 4 compounds are retold here after ChEMBL document CHEMBL5360674, “Discovery of Naphthol Tetramers from Endolichenic Fungus Daldinia childiae 047219 Based on MS/MS Molecular Networking” (2023).

In test [1] the test system is RAW264.7. Kind of test: Antiinflammatory activity in mouse RAW264.7 cells assessed as reduction in LPS-induced NO production at 25 to 50 uM preincubated for 2 hrs followed by LPS stimulation and measured after 24 hrs by Griess reagent-based assay relative to control. Format: functional. More on the design: scale not given: the % may be the effect or the level left. Conditions: dose 25-50 µM, time 26 hrs.

In test [2] the test system is RAW264.7. Kind of test: Antiinflammatory activity in mouse RAW264.7 cells assessed as reduction in LPS-induced NO production preincubated for 2 hrs followed by LPS stimulation and measured after 24 hrs by Griess reagent-based assay. Format: functional, cell-based. The following applies: dose 5-50 µM, time 26.0 hrs. A general note: Griess reagent forms a coloured azo dye with nitrite.

For test [3], the system named is RAW264.7. Kind of test: Antiinflammatory activity in mouse RAW264.7 cells assessed as reduction in LPS-induced NO production at 10 uM preincubated for 2 hrs followed by LPS stimulation and measured after 24 hrs by Griess reagent-based assay relative to control. Conditions: time 26 hrs. Also noted: scale not given: the % may be the effect or the level left. Format: functional.

As to `COc1cccc2ccc(-c3ccc4cccc(OC)c4c3O)c(O)c12`, the figures for the Activity in the test with RAW264.7 [1] and in the test on RAW264.7 [2] were 50% and “Dose-Dependent Effect”, respectively. On the same counts, the results for `COc1cccc2ccc(-c3cc(-c4ccc(O)c5c(OC)cccc45)c4cccc(OC)c4c3O)c(O)c12` are 50% and “Dose-Dependent Effect”. On the same counts, the results for `COc1cccc2ccc(-c3ccc(O)c4c(OC)cccc34)c(O)c12` are 50% and “Dose-Dependent Effect”.

In the case of `C[C@@H]1C[C@H]2[C@@H]3CCC4=CC(=O)C=C[C@]4(C)[C@@]3(F)[C@@H](O)C[C@]2(C)[C@@]1(O)C(=O)CO` [DEXAMETHASONE], in the test on RAW264.7 [3], the Activity was 50%.
